Earlier results as cited in US20240409577A1, “FORMATION OF AMIDINES AND INTRAMOLECULAR REACTION THEREOF” (priority 2023, published 2024).

Conditions: acid used for the imidazolone transformation

Q: Which pKa does the source give for `OC(C(F)(F)F)C(F)(F)F` [HFIP, hexafluoroisopropanol] here?
A: 8.3
